*1 amine or outer side, *2 acyl side, *3 side chain or, on linkers, in order; H or OH if unused. Where a SMILES comes first, the peptide text is derived from it. [ ]: non-standard residue; d: D form. The star is where a group is joined. ξ: configuration not given here. Fluorescein(5-NHCS) = O=C1OC2(c3ccc(O)cc3Oc3cc(O)ccc32)c2cc(NC(=S)*)ccc21; X18 = O=C([C@@H]1C[C@@H](O/N=C\c2ccc3c(c2)Cc2ccccc2-3)CN1[*:1])[*:2]; X19 = O=C([C@@H]1C[C@@H](O/N=C\c2ccc([N+](=O)[O-])cc2)CN1[*:1])[*:2]; X34 = O=C([C@@H]1[C@@H](O/N=C\c2ccc([N+](=O)[O-])o2)CCN1[*:1])[*:2]; X10 = O=C([C@@H]1C[C@H](O/N=C\c2c(F)c(F)c(F)c(F)c2F)CN1[*:1])[*:2]; X33 = CC(/C=N\O[C@H]1C[C@@H](C(=O)[*:2])N([*:1])C1)=C\c1ccccc1; X27 = N#Cc1ccc(/C=N\O[C@@H]2C[C@@H](C(=O)[*:2])N([*:1])C2)cc1; X21 = O=C([C@@H]1[C@@H](O/N=C\c2cnc3ccccc3c2)CCN1[*:1])[*:2]; X43 = COc1ccc(/C=N\O[C@H]2CCN([*:1])[C@@H]2C(=O)[*:2])cc1OC; X26 = O=C([C@@H]1C[C@@H](O/N=C\CCc2ccccc2)CN1[*:1])[*:2]; X46 = O=C([C@@H]1C[C@H](O/N=C\CCc2ccccc2)CN1[*:1])[*:2]; X20 = O=C(O)CC/C=N\O[C@H]1CCN([*:1])[C@@H]1C(=O)[*:2]; X4 = O=C([C@@H]1[C@@H](O/N=C\c2ccncc2)CCN1[*:1])[*:2]; X41 = CCCCC/C=N\O[C@@H]1C[C@@H](C(=O)[*:2])N([*:1])C1; X35 = O=C([C@@H]1C[C@H](O/N=C\c2ccoc2)CN1[*:1])[*:2]; X3 = CCCCC/C=N\O[C@H]1CCN([*:1])[C@@H]1C(=O)[*:2]; ξPip = O=C(O)C1CCCCN1; Ava = NCCCCC(=O)O
Biological target: T1, Tumor susceptibility gene 101 protein (Homo sapiens, UniProt Q99816)
T1 sequence (Q99816 whole entry): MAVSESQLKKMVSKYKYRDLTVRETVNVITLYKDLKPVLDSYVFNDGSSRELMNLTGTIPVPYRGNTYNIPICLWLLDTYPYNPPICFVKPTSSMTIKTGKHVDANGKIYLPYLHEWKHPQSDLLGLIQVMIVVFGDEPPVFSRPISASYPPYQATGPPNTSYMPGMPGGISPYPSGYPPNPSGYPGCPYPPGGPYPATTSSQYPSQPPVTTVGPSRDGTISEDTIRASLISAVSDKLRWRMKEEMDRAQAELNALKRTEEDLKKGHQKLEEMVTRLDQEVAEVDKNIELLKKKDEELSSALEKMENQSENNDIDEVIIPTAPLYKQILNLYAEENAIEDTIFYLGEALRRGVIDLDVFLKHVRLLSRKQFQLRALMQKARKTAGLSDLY
Test: Binding affinity to Tsg101

Compared with `C[C@H](NC(=O)[C@@H](NC(=O)[C@@H]1CCCN1C(=O)[C@H](CCC(=O)O)NC(=O)[C@@H]1CCCN1C(=O)CCCCNC(=S)Nc1ccc2c(c1)C1(OC2=O)c2ccc(O)cc2Oc2cc(O)ccc21)[C@@H](C)O)C(=O)N1CCCCC1C(=O)N1C[C@H](O/N=C\CCc2ccccc2)C[C@H]1C(=O)N[C@@H](CCC(=O)O)C(=O)N[C@@H](CCC(=O)O)C(N)=O` (stereo not given in full) ({Fluorescein(5-NHCS)-Ava}-PEPTA[ξPip][X26]EE-NH2), `C[C@H](NC(=O)[C@@H](NC(=O)[C@@H]1CCCN1C(=O)[C@H](CCC(=O)O)NC(=O)[C@@H]1CCCN1C(=O)CCCCNC(=S)Nc1ccc2c(c1)C1(OC2=O)c2ccc(O)cc2Oc2cc(O)ccc21)[C@@H](C)O)C(=O)N1CCCCC1C(=O)N1C[C@@H](O/N=C\CCc2ccccc2)C[C@H]1C(=O)N[C@@H](CCC(=O)O)C(=O)N[C@@H](CCC(=O)O)C(N)=O` (stereo not given in full) ({Fluorescein(5-NHCS)-Ava}-PEPTA[ξPip][X46]EE-NH2) is 3.2-fold higher in IC50: 26 µM for the first, 83 µM for the second.

Going from `C[C@H](NC(=O)[C@@H](NC(=O)[C@@H]1CCCN1C(=O)[C@H](CCC(=O)O)NC(=O)[C@@H]1CCCN1C(=O)CCCCNC(=S)Nc1ccc2c(c1)C1(OC2=O)c2ccc(O)cc2Oc2cc(O)ccc21)[C@@H](C)O)C(=O)N1CCCCC1C(=O)N1C[C@@H](O/N=C\c2ccoc2)C[C@H]1C(=O)N[C@@H](CCC(=O)O)C(=O)N[C@@H](CCC(=O)O)C(N)=O` (stereo not given in full) ({Fluorescein(5-NHCS)-Ava}-PEPTA[ξPip][X35]EE-NH2) to `C[C@H](NC(=O)[C@@H](NC(=O)[C@@H]1CCCN1C(=O)[C@H](CCC(=O)O)NC(=O)[C@@H]1CCCN1C(=O)CCCCNC(=S)Nc1ccc2c(c1)C1(OC2=O)c2ccc(O)cc2Oc2cc(O)ccc21)[C@@H](C)O)C(=O)N1CCCCC1C(=O)N1C[C@H](O/N=C\c2ccc(C#N)cc2)C[C@H]1C(=O)N[C@@H](CCC(=O)O)C(=O)N[C@@H](CCC(=O)O)C(N)=O` (stereo not given in full) ({Fluorescein(5-NHCS)-Ava}-PEPTA[ξPip][X27]EE-NH2), the IC50 falls from 48 µM to 20 µM (2.4-fold).

Going from `CC(/C=N\O[C@H]1C[C@@H](C(=O)N[C@@H](CCC(=O)O)C(=O)N[C@@H](CCC(=O)O)C(N)=O)N(C(=O)C2CCCCN2C(=O)[C@H](C)NC(=O)[C@@H](NC(=O)[C@@H]2CCCN2C(=O)[C@H](CCC(=O)O)NC(=O)[C@@H]2CCCN2C(=O)CCCCNC(=S)Nc2ccc3c(c2)C2(OC3=O)c3ccc(O)cc3Oc3cc(O)ccc32)[C@@H](C)O)C1)=C\c1ccccc1` (stereo not given in full) ({Fluorescein(5-NHCS)-Ava}-PEPTA[ξPip][X33]EE-NH2) to `C[C@H](NC(=O)[C@@H](NC(=O)[C@@H]1CCCN1C(=O)[C@H](CCC(=O)O)NC(=O)[C@@H]1CCCN1C(=O)CCCCNC(=S)Nc1ccc2c(c1)C1(OC2=O)c2ccc(O)cc2Oc2cc(O)ccc21)[C@@H](C)O)C(=O)N1CCCCC1C(=O)N1C[C@H](O/N=C\c2ccc([N+](=O)[O-])cc2)C[C@H]1C(=O)N[C@@H](CCC(=O)O)C(=O)N[C@@H](CCC(=O)O)C(N)=O` (stereo not given in full) ({Fluorescein(5-NHCS)-Ava}-PEPTA[ξPip][X19]EE-NH2), the IC50 falls from 58 µM to 21 µM (2.8-fold).

`C[C@H](NC(=O)[C@@H](NC(=O)[C@@H]1CCCN1C(=O)[C@H](CCC(=O)O)NC(=O)[C@@H]1CCCN1C(=O)CCCCNC(=S)Nc1ccc2c(c1)C1(OC2=O)c2ccc(O)cc2Oc2cc(O)ccc21)[C@@H](C)O)C(=O)N1CCCCC1C(=O)N1CC[C@H](O/N=C\c2cnc3ccccc3c2)[C@H]1C(=O)N[C@@H](CCC(=O)O)C(=O)N[C@@H](CCC(=O)O)C(N)=O` (stereo not given in full) ({Fluorescein(5-NHCS)-Ava}-PEPTA[ξPip][X21]EE-NH2) and `C[C@H](NC(=O)[C@@H](NC(=O)[C@@H]1CCCN1C(=O)[C@H](CCC(=O)O)NC(=O)[C@@H]1CCCN1C(=O)CCCCNC(=S)Nc1ccc2c(c1)C1(OC2=O)c2ccc(O)cc2Oc2cc(O)ccc21)[C@@H](C)O)C(=O)N1CCCCC1C(=O)N1CC[C@H](O/N=C\c2ccncc2)[C@H]1C(=O)N[C@@H](CCC(=O)O)C(=O)N[C@@H](CCC(=O)O)C(N)=O` (stereo not given in full) ({Fluorescein(5-NHCS)-Ava}-PEPTA[ξPip][X4]EE-NH2) are within 1.5-fold of each other in IC50: 19 µM for the first, 22 µM for the second.

Compared with `C[C@H](NC(=O)[C@@H](NC(=O)[C@@H]1CCCN1C(=O)[C@H](CCC(=O)O)NC(=O)[C@@H]1CCCN1C(=O)CCCCNC(=S)Nc1ccc2c(c1)C1(OC2=O)c2ccc(O)cc2Oc2cc(O)ccc21)[C@@H](C)O)C(=O)N1CCCCC1C(=O)N1C[C@@H](O/N=C\c2c(F)c(F)c(F)c(F)c2F)C[C@H]1C(=O)N[C@@H](CCC(=O)O)C(=O)N[C@@H](CCC(=O)O)C(N)=O` (stereo not given in full) ({Fluorescein(5-NHCS)-Ava}-PEPTA[ξPip][X10]EE-NH2), `CCCCC/C=N\O[C@@H]1C[C@@H](C(=O)N[C@@H](CCC(=O)O)C(=O)N[C@@H](CCC(=O)O)C(N)=O)N(C(=O)C2CCCCN2C(=O)[C@H](C)NC(=O)[C@@H](NC(=O)[C@@H]2CCCN2C(=O)[C@H](CCC(=O)O)NC(=O)[C@@H]2CCCN2C(=O)CCCCNC(=S)Nc2ccc3c(c2)C2(OC3=O)c3ccc(O)cc3Oc3cc(O)ccc32)[C@@H](C)O)C1` (stereo not given in full) ({Fluorescein(5-NHCS)-Ava}-PEPTA[ξPip][X41]EE-NH2) is 3.4-fold lower in IC50: 139 µM for the first, 41 µM for the second.

`C[C@H](NC(=O)[C@@H](NC(=O)[C@@H]1CCCN1C(=O)[C@H](CCC(=O)O)NC(=O)[C@@H]1CCCN1C(=O)CCCCNC(=S)Nc1ccc2c(c1)C1(OC2=O)c2ccc(O)cc2Oc2cc(O)ccc21)[C@@H](C)O)C(=O)N1CCCCC1C(=O)N1CC[C@H](O/N=C\c2ccc([N+](=O)[O-])o2)[C@H]1C(=O)N[C@@H](CCC(=O)O)C(=O)N[C@@H](CCC(=O)O)C(N)=O` (stereo not given in full) ({Fluorescein(5-NHCS)-Ava}-PEPTA[ξPip][X34]EE-NH2) and `C[C@H](NC(=O)[C@@H](NC(=O)[C@@H]1CCCN1C(=O)[C@H](CCC(=O)O)NC(=O)[C@@H]1CCCN1C(=O)CCCCNC(=S)Nc1ccc2c(c1)C1(OC2=O)c2ccc(O)cc2Oc2cc(O)ccc21)[C@@H](C)O)C(=O)N1CCCCC1C(=O)N1CC[C@H](O/N=C\CCC(=O)O)[C@H]1C(=O)N[C@@H](CCC(=O)O)C(=O)N[C@@H](CCC(=O)O)C(N)=O` (stereo not given in full) ({Fluorescein(5-NHCS)-Ava}-PEPTA[ξPip][X20]EE-NH2) are within 1.5-fold of each other in IC50: 18 µM for the first, 16 µM for the second.

`COc1ccc(/C=N\O[C@H]2CCN(C(=O)C3CCCCN3C(=O)[C@H](C)NC(=O)[C@@H](NC(=O)[C@@H]3CCCN3C(=O)[C@H](CCC(=O)O)NC(=O)[C@@H]3CCCN3C(=O)CCCCNC(=S)Nc3ccc4c(c3)C3(OC4=O)c4ccc(O)cc4Oc4cc(O)ccc43)[C@@H](C)O)[C@@H]2C(=O)N[C@@H](CCC(=O)O)C(=O)N[C@@H](CCC(=O)O)C(N)=O)cc1OC` (stereo not given in full) ({Fluorescein(5-NHCS)-Ava}-PEPTA[ξPip][X43]EE-NH2) and `CCCCC/C=N\O[C@H]1CCN(C(=O)C2CCCCN2C(=O)[C@H](C)NC(=O)[C@@H](NC(=O)[C@@H]2CCCN2C(=O)[C@H](CCC(=O)O)NC(=O)[C@@H]2CCCN2C(=O)CCCCNC(=S)Nc2ccc3c(c2)C2(OC3=O)c3ccc(O)cc3Oc3cc(O)ccc32)[C@@H](C)O)[C@@H]1C(=O)N[C@@H](CCC(=O)O)C(=O)N[C@@H](CCC(=O)O)C(N)=O` (stereo not given in full) ({Fluorescein(5-NHCS)-Ava}-PEPTA[ξPip][X3]EE-NH2) are within 1.5-fold of each other in IC50: 22 µM for the first, 23 µM for the second.

For `C[C@H](NC(=O)[C@@H](NC(=O)[C@@H]1CCCN1C(=O)[C@H](CCC(=O)O)NC(=O)[C@@H]1CCCN1C(=O)CCCCNC(=S)Nc1ccc2c(c1)C1(OC2=O)c2ccc(O)cc2Oc2cc(O)ccc21)[C@@H](C)O)C(=O)N1CCCCC1C(=O)N1C[C@H](O/N=C\c2ccc3c(c2)Cc2ccccc2-3)C[C@H]1C(=O)N[C@@H](CCC(=O)O)C(=O)N[C@@H](CCC(=O)O)C(N)=O` (stereo not given in full) ({Fluorescein(5-NHCS)-Ava}-PEPTA[ξPip][X18]EE-NH2), the IC50 was 27 µM.

From ChEMBL document CHEMBL1140819, “Protected aminooxyprolines for expedited library synthesis: application to Tsg101-directed proline-oxime containing peptides” (Bioorg Med Chem Lett, 2008)
